Reference: the NIST ThermoML archive (doi:10.1016/j.jct.2015.08.013)

Assay: xn = mol fraction of the nth substance listed
Settings: 100 kPa, Liquid; for mass density: Vibrating tube method; for viscosity: Capillary tube (Ostwald / Ubbelohde) method

O=C1CCCO1 [γ-butyrolactone] + CN1CCCC1=O
Settings | mass density [kg/m3] | viscosity [mPa·s]
293.15 K, x2 = 0 | 1129.2 | –
293.15 K, x2 = 0.1011 | 1117.01 | –
293.15 K, x2 = 0.1484 | 1111.57 | –
293.15 K, x2 = 0.2506 | 1100.29 | –
293.15 K, x2 = 0.3027 | 1094.76 | –
293.15 K, x2 = 0.4002 | 1084.79 | –
293.15 K, x2 = 0.4953 | 1075.51 | –
293.15 K, x2 = 0.5983 | 1065.98 | –
293.15 K, x2 = 0.6977 | 1057.25 | –
293.15 K, x2 = 0.8022 | 1048.51 | –
293.15 K, x2 = 0.851 | 1044.56 | –
293.15 K, x2 = 0.9418 | 1037.29 | –
298.15 K, x2 = 0 | 1124.26 | 1.73
298.15 K, x2 = 0.1002 | – | 1.719
298.15 K, x2 = 0.1011 | 1112.14 | –
298.15 K, x2 = 0.1484 | 1106.72 | –
298.15 K, x2 = 0.2002 | – | 1.71
298.15 K, x2 = 0.2506 | 1095.51 | –
298.15 K, x2 = 0.3027 | 1090 | –
298.15 K, x2 = 0.3078 | – | 1.701
298.15 K, x2 = 0.3999 | – | 1.694
298.15 K, x2 = 0.4002 | 1080.08 | –
298.15 K, x2 = 0.4953 | 1070.84 | –
298.15 K, x2 = 0.4998 | – | 1.689
298.15 K, x2 = 0.5983 | 1061.35 | –
298.15 K, x2 = 0.6003 | – | 1.685
298.15 K, x2 = 0.6977 | 1052.68 | –
298.15 K, x2 = 0.7002 | – | 1.682
298.15 K, x2 = 0.8011 | – | 1.679
298.15 K, x2 = 0.8022 | 1043.99 | –
298.15 K, x2 = 0.851 | 1040.04 | –
298.15 K, x2 = 0.8998 | – | 1.678
298.15 K, x2 = 0.9418 | 1032.8 | –
303.15 K, x2 = 0 | 1119.33 | 1.63
303.15 K, x2 = 0.1002 | – | 1.614
303.15 K, x2 = 0.1011 | 1107.27 | –
303.15 K, x2 = 0.1484 | 1101.88 | –
303.15 K, x2 = 0.2002 | – | 1.601
303.15 K, x2 = 0.2506 | 1090.7 | –
303.15 K, x2 = 0.3027 | 1085.22 | –
303.15 K, x2 = 0.3078 | – | 1.587
303.15 K, x2 = 0.3999 | – | 1.577
303.15 K, x2 = 0.4002 | 1075.32 | –
303.15 K, x2 = 0.4953 | 1066.12 | –
303.15 K, x2 = 0.4998 | – | 1.568
303.15 K, x2 = 0.5983 | 1056.67 | –
303.15 K, x2 = 0.6003 | – | 1.559
303.15 K, x2 = 0.6977 | 1048.03 | –
303.15 K, x2 = 0.7002 | – | 1.552
303.15 K, x2 = 0.8011 | – | 1.546
303.15 K, x2 = 0.8022 | 1039.38 | –
303.15 K, x2 = 0.851 | 1035.46 | –
303.15 K, x2 = 0.8998 | – | 1.541
303.15 K, x2 = 0.9418 | 1028.25 | –
308.15 K, x2 = 0 | 1114.31 | 1.52
308.15 K, x2 = 0.1002 | – | 1.504
308.15 K, x2 = 0.1011 | 1102.38 | –
308.15 K, x2 = 0.1484 | 1097.05 | –
308.15 K, x2 = 0.2002 | – | 1.49
308.15 K, x2 = 0.2506 | 1085.98 | –
308.15 K, x2 = 0.3027 | 1080.55 | –
308.15 K, x2 = 0.3078 | – | 1.477
308.15 K, x2 = 0.3999 | – | 1.468
308.15 K, x2 = 0.4002 | 1070.75 | –
308.15 K, x2 = 0.4953 | 1061.64 | –
308.15 K, x2 = 0.4998 | – | 1.458
308.15 K, x2 = 0.5983 | 1052.28 | –
308.15 K, x2 = 0.6003 | – | 1.45
308.15 K, x2 = 0.6977 | 1043.71 | –
308.15 K, x2 = 0.7002 | – | 1.443
308.15 K, x2 = 0.8011 | – | 1.437
308.15 K, x2 = 0.8022 | 1035.14 | –
308.15 K, x2 = 0.851 | 1031.26 | –
308.15 K, x2 = 0.8998 | – | 1.433
308.15 K, x2 = 0.9418 | 1024.11 | –
313.15 K, x2 = 0 | 1109.23 | 1.42
313.15 K, x2 = 0.1002 | – | 1.404
313.15 K, x2 = 0.1011 | 1097.36 | –
313.15 K, x2 = 0.1484 | 1092.04 | –
313.15 K, x2 = 0.2002 | – | 1.391
313.15 K, x2 = 0.2506 | 1081.02 | –
313.15 K, x2 = 0.3027 | 1075.61 | –
313.15 K, x2 = 0.3078 | – | 1.379
313.15 K, x2 = 0.3999 | – | 1.37
313.15 K, x2 = 0.4002 | 1065.84 | –
313.15 K, x2 = 0.4953 | 1056.76 | –
313.15 K, x2 = 0.4998 | – | 1.361
313.15 K, x2 = 0.5983 | 1047.44 | –
313.15 K, x2 = 0.6003 | – | 1.354
313.15 K, x2 = 0.6977 | 1038.91 | –
313.15 K, x2 = 0.7002 | – | 1.348
313.15 K, x2 = 0.8011 | – | 1.344
313.15 K, x2 = 0.8022 | 1030.36 | –
313.15 K, x2 = 0.851 | 1026.5 | –
313.15 K, x2 = 0.8998 | – | 1.34
313.15 K, x2 = 0.9418 | 1019.36 | –
318.15 K, x2 = 0 | 1104.1 | 1.35
318.15 K, x2 = 0.1002 | – | 1.331
318.15 K, x2 = 0.1011 | 1092.31 | –
318.15 K, x2 = 0.1484 | 1087.03 | –
318.15 K, x2 = 0.2002 | – | 1.316
318.15 K, x2 = 0.2506 | 1076.08 | –
318.15 K, x2 = 0.3027 | 1070.71 | –
318.15 K, x2 = 0.3078 | – | 1.302
318.15 K, x2 = 0.3999 | – | 1.291
318.15 K, x2 = 0.4002 | 1061.01 | –
318.15 K, x2 = 0.4953 | 1051.99 | –
318.15 K, x2 = 0.4998 | – | 1.28
318.15 K, x2 = 0.5983 | 1042.73 | –
318.15 K, x2 = 0.6003 | – | 1.271
318.15 K, x2 = 0.6977 | 1034.27 | –
318.15 K, x2 = 0.7002 | – | 1.263
318.15 K, x2 = 0.8011 | – | 1.256
318.15 K, x2 = 0.8022 | 1025.76 | –
318.15 K, x2 = 0.851 | 1021.91 | –
318.15 K, x2 = 0.8998 | – | 1.251
318.15 K, x2 = 0.9418 | 1014.8 | –
323.15 K, x2 = 0 | 1098.88 | 1.3
323.15 K, x2 = 0.1002 | – | 1.278
323.15 K, x2 = 0.1011 | 1087.72 | –
323.15 K, x2 = 0.1484 | 1082 | –
323.15 K, x2 = 0.2002 | – | 1.261
323.15 K, x2 = 0.2506 | 1071.16 | –
323.15 K, x2 = 0.3027 | 1065.83 | –
323.15 K, x2 = 0.3078 | – | 1.245
323.15 K, x2 = 0.3999 | – | 1.232
323.15 K, x2 = 0.4002 | 1056.23 | –
323.15 K, x2 = 0.4953 | 1047.31 | –
323.15 K, x2 = 0.4998 | – | 1.219
323.15 K, x2 = 0.5983 | 1038.15 | –
323.15 K, x2 = 0.6003 | – | 1.208
323.15 K, x2 = 0.6977 | 1029.76 | –
323.15 K, x2 = 0.7002 | – | 1.198
323.15 K, x2 = 0.8011 | – | 1.189
323.15 K, x2 = 0.8022 | 1021.34 | –
323.15 K, x2 = 0.851 | 1017.51 | –
323.15 K, x2 = 0.8998 | – | 1.182
323.15 K, x2 = 0.9418 | 1010.46 | –
